Six molecules from patent US5998453A, “Oxazolidinone compounds and pharmaceutical preparation containing them” (Schering Aktiengesellschaft, priority 1984, dated 1999) can be followed below.

The term ED50 denotes the midpoint of the dose-response relation.

This assay concerns weight increase caused by croton oil. In words: rat ear test according to Tonelli (croton oil), topical anti-inflammatory activity. In kind it is in vivo, Wistar rats. Conditions: 5 hours after treatment.

Molecule `CCCC(=O)OC1(C(=O)CO)CCC2C3CCC4=CC(=O)CCC4(C)C3C(O)CC21C` (stereo not drawn) [Compound 3, Hydrocortisone 17-butyrate] gave a median effective dose (ED50) of 0.5 mg/kg.

In the case of `O=C(O)COc1nn(Cc2ccccc2)c2ccccc12` [Compound 2, Bendazac], the ED50 was 15 mg/kg.

For the molecule `CCCCOc1ccc(CC(=O)NO)cc1` [Compound 1, Bufexamac], the 50% effective dose (ED50) was 15 mg/kg.

In the case of `COc1ccc(C2CNC(=O)C2)cc1OCC(C)C` (stereo not drawn) [Compound 6, 4-(3-Isobutoxy-4-nmethoxypheny1)-2-pyrrolidone], the 50% effective dose (ED50) was 1.1 mg/kg.

For the molecule `COc1ccc(C2CNC(=O)C2)cc1OC1CCOC1` (stereo not drawn) [Compound 5, 4-[4-Methoxy-3-(3-tetrahydrofuryloxy)phenyl]-2-pyrrolidone], it took a dose of 0.2 mg/kg to reach the 50% effect level (ED50).

In the case of `COc1ccc(C2CNC(=O)C2)cc1OC1CCCC1` (stereo not drawn) [Compound 4, 4-(3-Cyclopentyloxy-4-methoxyphenyl)-2-pyrrolidone], the ED50 worked out at 0.6 mg/kg.
